Measurements reported in patent publication US20250163038A1, “CBL-B MODULATORS AND USES THEREOF” (Nimbus Clio, Inc., priority 2021, published 2025).

What was measured:
[1] = target: Recombinant human Cbl-b (aa 36-427) (Homo sapiens, UniProt Q13191); assay: Cbl-b Biochemical Assay (TR-FRET); conditions: read-out: TR-FRET hCbl-b IC50
[2] = system: Jurkat (clone E6-1) cells with NFAT luciferase reporter; assay: Jurkat reporter assay (NFAT Luciferase); format: cell-based; conditions: Homo sapiens; Jurkat NFAT luciferase reporter cells, anti-CD3 stimulation, 6 hr; read-out: Jurkat NFAT EC50
[3] = target: T1, Recombinant human c-Cbl (aa 47-435) (Homo sapiens, UniProt P22681); assay: c-Cbl Biochemical Assay (TR-FRET); conditions: hc-Cbl Biochemical Assay (TR-FRET); read-out: TR-FRET hcCbl IC50
T1 sequence (P22681 47-435): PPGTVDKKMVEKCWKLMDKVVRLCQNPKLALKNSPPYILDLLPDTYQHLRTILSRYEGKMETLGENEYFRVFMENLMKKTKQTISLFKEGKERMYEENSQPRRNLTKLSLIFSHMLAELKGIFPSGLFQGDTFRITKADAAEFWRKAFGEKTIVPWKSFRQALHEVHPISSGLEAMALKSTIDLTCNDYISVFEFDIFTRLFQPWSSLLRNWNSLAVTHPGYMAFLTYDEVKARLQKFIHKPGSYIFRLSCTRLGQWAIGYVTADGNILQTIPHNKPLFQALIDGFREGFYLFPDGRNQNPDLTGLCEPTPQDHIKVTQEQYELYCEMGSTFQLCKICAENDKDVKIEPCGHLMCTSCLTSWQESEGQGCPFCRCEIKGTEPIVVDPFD

Sequence of Recombinant human Cbl-b (aa 36-427) (Q13191 36-427): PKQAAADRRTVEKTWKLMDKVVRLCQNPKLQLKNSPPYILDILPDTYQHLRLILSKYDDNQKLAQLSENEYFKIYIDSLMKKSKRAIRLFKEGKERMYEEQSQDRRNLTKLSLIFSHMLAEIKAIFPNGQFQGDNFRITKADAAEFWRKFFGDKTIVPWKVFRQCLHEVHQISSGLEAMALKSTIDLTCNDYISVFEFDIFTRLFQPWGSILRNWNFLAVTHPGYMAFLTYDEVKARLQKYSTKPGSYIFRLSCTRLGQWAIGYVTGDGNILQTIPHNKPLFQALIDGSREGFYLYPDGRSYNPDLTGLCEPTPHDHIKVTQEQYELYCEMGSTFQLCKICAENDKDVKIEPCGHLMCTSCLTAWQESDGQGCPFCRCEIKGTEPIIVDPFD

Row | SMILES | IC50 [1] [nM] | EC50 [2] [nM] | IC50 [3] [nM]
1 | Cn1cnnc1-c1cc(F)ccc1-c1cccc(-c2nc3cc(CNCC4(O)CC(F)(F)C4)cc(C(F)(F)F)c3[nH]2)c1 [CK-2, 3,3-Difluoro-1-((((2-(4′-fluoro-2′-(4-methyl-4H-1,2,4-triazol-3-yl)-[1,1′-biphenyl]-3-yl)-7-(trifluoromethyl)-1H-benzo[d]imidazol-5-yl)methyl)amino)methyl)cyclobutan-1-ol] | < 200 | < 200 | < 200
2 | Cn1cnnc1-c1cc(C#N)ccc1-c1cccc(-c2nc3cc(CO)cc(C(F)(F)F)c3o2)c1 [CL-2, 3′-(5-(Hydroxymethyl)-7-(trifluoromethyl)benzo[d]oxazol-2-yl)-2-(4-methyl-4H-1,2,4-triazol-3-yl)-[1,1′-biphenyl]-4-carbonitrile] | < 200 | 1000 to 10000 | 200 to 1000
3 | Cn1cnnc1-c1cc(F)ccc1-c1cccc(-c2nc3cc(CN[C@@H]4CCC[C@@H]4O)ccc3o2)c1 [CM-1, (1S,2R)-2-(((2-(4′-Fluoro-2′-(4-methyl-4H-1,2,4-triazol-3-yl)-[1,1′-biphenyl]-3-yl)benzo[d]oxazol-5-yl)methyl)amino)cyclopentan-1-ol] | < 200 | < 200 | < 200
4 | CO[C@H]1CCC[C@H]1N(C)Cc1cc(C(F)(F)F)c2oc(-c3cccc(-c4ccc(F)cc4-c4nncn4C)c3)nc2c1 [CN-5, (1R,2S)—N-((2-(4′-Fluoro-2′-(4-methyl-4H-1,2,4-triazol-3-yl)-[1,1′-biphenyl]-3-yl)-7-(trifluoromethyl)benzo[d]oxazol-5-yl)methyl)-2-methoxy-N-methylcyclopentan-1-amine] | < 200 | 200 to 1000 | 200 to 1000
5 | Cn1cnnc1-c1cc(C#N)ccc1-c1cccc(-c2nc3cc(CN[C@@H]4CCC[C@@H]4O)cc(C(F)(F)F)c3o2)c1 [CP-4, 3′-(5-((((1R,2S)-2-Hydroxycyclopentyl)amino)methyl)-7-(trifluoromethyl)benzo[d]oxazol-2-yl)-2-(4-methyl-4H-1,2,4-triazol-3-yl)-[1,1′-biphenyl]-4-carbonitrile] | < 200 | < 200 | < 200
6 | Cn1cnnc1-c1cc(F)ccc1-c1cccc(-c2nc3cc(CNCC4(O)CC(F)(F)C4)cc(C(F)(F)F)c3o2)c1 [CQ-1, 3,3-Difluoro-1-((((2-(4′-fluoro-2′-(4-methyl-4H-1,2,4-triazol-3-yl)-[1,1′-biphenyl]-3-yl)-7-(trifluoromethyl)benzo[d]oxazol-5-yl)methyl)amino)methyl)cyclobutan-1-ol] | < 200 | < 200 | < 200
7 | CCN(CC[C@@H](O)C(F)(F)F)Cc1cc(C(F)(F)F)c2oc(-c3cccc(-c4ccc(F)cc4-c4nncn4C)c3)nc2c1 [CR-2] | < 200 | 200 to 1000 | < 200
8 | Cn1cnnc1-c1cc(F)ccc1-c1cccc(-c2nc3cc(CNC[C@@H](O)C(F)(F)F)cc(C(F)(F)F)c3o2)c1 [CR-3, (R)-1,1,1-trifluoro-3-(((2-(4′-fluoro-2′-(4-methyl-4H-1,2,4-triazol-3-yl)-[1,1′-biphenyl]-3-yl)-7-(trifluoromethyl)benzo[d]oxazol-5-yl)methyl)amino)propan-2-ol] | < 200 | < 200 | < 200
9 | Cn1cnnc1-c1cc(F)ccc1-c1cccc(-c2nc3cc(CNCC4(C#N)CCCC4)cc(C(F)(F)F)c3[nH]2)c1 [CS-1, 1-((((2-(4′-Fluoro-2′-(4-methyl-4H-1,2,4-triazol-3-yl)-[1,1′-biphenyl]-3-yl)-7-(trifluoromethyl)-1H-benzo[d]imidazol-5-yl)methyl)amino)methyl)cyclopentane-1-carbonitrile] | < 200 | 200 to 1000 | < 200
10 | Cn1cnnc1-c1cc(F)ccc1-c1cccc(-c2nc3cc(CNCC4(C#N)CCOCC4)cc(C(F)(F)F)c3[nH]2)c1 [CT-2, 4-((((2-(4′-Fluoro-2′-(4-methyl-4H-1,2,4-triazol-3-yl)-[1,1′-biphenyl]-3-yl)-7-(trifluoromethyl)-1H-benzo[d]imidazol-5-yl)methyl)amino)methyl)tetrahydro-2H-pyran-4-carbonitrile] | < 200 | 200 to 1000 | 200 to 1000
11 | Cn1cnnc1-c1cc(F)ccc1-c1cccc(-c2nc3cc(CNC[C@@H]4CCC(=O)N4)cc(C(F)(F)F)c3o2)c1 [CU-2, (S)-5-((((2-(4′-Fluoro-2′-(4-methyl-4H-1,2,4-triazol-3-yl)-[1,1′-biphenyl]-3-yl)-7-(trifluoromethyl)benzo[d]oxazol-5-yl)methyl)amino)methyl)pyrrolidin-2-one] | < 200 | 200 to 1000 | < 200
12 | Cn1cnnc1-c1cc(F)ccc1-c1cccc(-c2nc3cc(CN[C@@H]4CCC[C@@H]4F)cc(C(F)(F)F)c3o2)c1 [CW-5, (1R,2S)-2-Fluoro-N-((2-(4′-fluoro-2′-(4-methyl-4H-1,2,4-triazol-3-yl)-[1,1′-biphenyl]-3-yl)-7-(trifluoromethyl)benzo[d]oxazol-5-yl)methyl)cyclopentan-1-amine] | < 200 | < 200 | < 200
13 | Cn1cnnc1-c1cc(F)ccc1-c1cccc(-c2nc3cc(CNCC4(C#N)CCCC4)cc(C(F)(F)F)c3o2)c1 [CX-1, 1-((((2-(4′-Fluoro-2′-(4-methyl-4H-1,2,4-triazol-3-yl)-[1,1′-biphenyl]-3-yl)-7-(trifluoromethyl)benzo[d]oxazol-5-yl)methyl)amino)methyl)cyclopentane-1-carbonitrile] | < 200 | 200 to 1000 | < 200
14 | Cn1cnnc1-c1cc(F)ccc1-c1cccc(-c2nc3cc(CN4C(=O)O[C@H]5CCC[C@H]54)cc(C(F)(F)F)c3o2)c1 [CY-1, (3aR,6aS)-3-((2-(4′-Fluoro-2′-(4-methyl-4H-1,2,4-triazol-3-yl)-[1,1′-biphenyl]-3-yl)-7-(trifluoromethyl)benzo[d]oxazol-5-yl)methyl)hexahydro-2H-cyclopenta[d]oxazol-2-one] | < 200 | 1000 to 10000 | 200 to 1000
15 | Cn1cnnc1-c1cc(F)ccc1-c1cccc(-c2nc3cc(CNCC(O)(C(F)(F)F)C(F)(F)F)cc(C(F)(F)F)c3o2)c1 [CZ-2, 1,1,1,3,3,3-Hexafluoro-2-((((2-(4′-fluoro-2′-(4-methyl-4H-1,2,4-triazol-3-yl)-[1,1′-biphenyl]-3-yl)-7-(trifluoromethyl)benzo[d]oxazol-5-yl)methyl)amino)methyl)propan-2-ol] | < 200 | 200 to 1000 | < 200
16 | Cn1cnnc1-c1cc(F)ccc1-c1cccc(-c2nc3cc(CNCC(C)(C)F)cc(C(F)(F)F)c3o2)c1 [DA-1, 2-Fluoro-N-((2-(4′-fluoro-2′-(4-methyl-4H-1,2,4-triazol-3-yl)-[1,1′-biphenyl]-3-yl)-7-(trifluoromethyl)benzo[d]oxazol-5-yl)methyl)-2-methylpropan-1-amine] | < 200 | < 200 | < 200
17 | Cn1cnnc1-c1cc(F)ccc1-c1cccc(-c2nc3ccc(CN[C@@H]4CCC[C@@H]4O)cc3o2)c1 [DD-2, (1S,2R)-2-(((2-(4′-Fluoro-2′-(4-methyl-4H-1,2,4-triazol-3-yl)-[1,1′-biphenyl]-3-yl)benzo[d]oxazol-6-yl)methyl)amino)cyclopentan-1-ol] | < 200 | 1000 to 10000 | 200 to 1000
18 | COC1(CNCc2cc(C(F)(F)F)c3oc(-c4cccc(-c5ccc(F)cc5-c5nncn5C)c4)nc3c2)CCC1 [DE-2, 1-(2-(4′-Fluoro-2′-(4-methyl-4H-1,2,4-triazol-3-yl)-[1,1′-biphenyl]-3-yl)-7-(trifluoromethyl)benzo[d]oxazol-5-yl)-N-((1-methoxycyclobutyl)methyl)methanamine] | < 200 | 200 to 1000 | < 200
19 | Cn1cnnc1-c1cc(F)ccc1-c1cccc(-c2nc3cc(CN[C@@H]4CCCC[C@@H]4O)cc(C(F)(F)F)c3o2)c1 [DF-2, (1S,2R)-2-(((2-(4′-Fluoro-2′-(4-methyl-4H-1,2,4-triazol-3-yl)-[1,1′-biphenyl]-3-yl)-7-(trifluoromethyl)benzo[d]oxazol-5-yl)methyl)amino)cyclohexan-1-ol] | < 200 | < 200 | < 200
20 | CC[C@H](O)CNCc1cc(C(F)(F)F)c2oc(-c3cccc(-c4ccc(F)cc4-c4nncn4C)c3)nc2c1 [DG-2, (S)-1-(((2-(4′-Fluoro-2′-(4-methyl-4H-1,2,4-triazol-3-yl)-[1,1′-biphenyl]-3-yl)-7-(trifluoromethyl)benzo[d]oxazol-5-yl)methyl)amino)butan-2-ol] | < 200 | < 200 | < 200
21 | Cn1cnnc1-c1cc(F)ccc1-c1cccc(-c2nc3cc(CN[C@@H]4COC[C@@H]4O)cc(C(F)(F)F)c3o2)c1 [DH-2, (3R,4R)-4-(((2-(4′-Fluoro-2′-(4-methyl-4H-1,2,4-triazol-3-yl)-[1,1′-biphenyl]-3-yl)-7-(trifluoromethyl)benzo[d]oxazol-5-yl)methyl)amino)tetrahydrofuran-3-ol] | < 200 | < 200 | < 200
22 | Cn1cnnc1-c1cc(F)ccc1-c1cccc(-c2nc3cc(C(=O)NO)cc(C(F)(F)F)c3o2)c1 [DI-1, 2-(4′-Fluoro-2′-(4-methyl-4H-1,2,4-triazol-3-yl)-[1,1′-biphenyl]-3-yl)-N-hydroxy-7-(trifluoromethyl)benzo[d]oxazole-5-carboxamide] | < 200 | 10000 to 50000 | 1000 to 10000
